Results taken from PubChem BioAssay (NCI).
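Exposure lasted 48 hours, with cells grown in 96-well plates and compounds tested at five concentrations. Definition used: TGI = concentration required for complete inhibition of growth.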

Experiments:
Experiment in all cases: NCI anticancer screen, dose series, 48 h
BT-549 breast = tested on: BT-549 breast
MCF7 breast = tested on: MCF7 breast
KM12 colon = tested on: KM12 colon
MALME-3M melanoma = tested on: MALME-3M melanoma
RPMI-8226 leukemia = tested on: RPMI-8226 leukemia
OVCAR-4 ovarian = tested on: OVCAR-4 ovarian
A498 renal = tested on: A498 renal
CAKI-1 renal = tested on: CAKI-1 renal
MOLT-4 leukemia = tested on: MOLT-4 leukemia
HOP-62 NSCLC = tested on: HOP-62 NSCLC
HL-60(TB) leukemia = tested on: HL-60(TB) leukemia
NCI-H23 lung = tested on: NCI-H23 lung
SK-OV-3 ovarian = tested on: SK-OV-3 ovarian
SK-MEL-2 melanoma = tested on: SK-MEL-2 melanoma
NCI-H460 lung = tested on: NCI-H460 lung
UACC-257 melanoma = tested on: UACC-257 melanoma
MDA-MB-231 breast = tested on: MDA-MB-231 breast
HCC-2998 colon = tested on: HCC-2998 colon
IGROV1 ovarian = tested on: IGROV1 ovarian
NCI/ADR-RES ovarian = tested on: NCI/ADR-RES ovarian
OVCAR-8 ovarian = tested on: OVCAR-8 ovarian
NCI-H226 lung = tested on: NCI-H226 lung
SK-MEL-5 melanoma = tested on: SK-MEL-5 melanoma
PC-3 prostate = tested on: PC-3 prostate
MDA-MB-435 = tested on: MDA-MB-435
HCT-15 colon = tested on: HCT-15 colon
LOX IMVI melanoma = tested on: LOX IMVI melanoma
SNB-19 CNS = tested on: SNB-19 CNS
COLO 205 colon = tested on: COLO 205 colon
DU-145 prostate = tested on: DU-145 prostate
TK-10 renal = tested on: TK-10 renal
ACHN renal = tested on: ACHN renal
U251 CNS = tested on: U251 CNS
A549 NSCLC = tested on: A549 NSCLC
MDA-N = tested on: MDA-N
HT29 colon = tested on: HT29 colon
HOP-92 NSCLC = tested on: HOP-92 NSCLC
SW-620 colon = tested on: SW-620 colon
UO-31 renal = tested on: UO-31 renal
EKVX NSCLC = tested on: EKVX NSCLC
M14 melanoma = tested on: M14 melanoma
T-47D breast = tested on: T-47D breast
SF-295 CNS = tested on: SF-295 CNS
K-562 leukemia = tested on: K-562 leukemia
OVCAR-3 ovarian = tested on: OVCAR-3 ovarian
RXF 393 renal = tested on: RXF 393 renal
HS 578T breast = tested on: HS 578T breast
SK-MEL-28 melanoma = tested on: SK-MEL-28 melanoma
786-0 renal = tested on: 786-0 renal
SN12C renal = tested on: SN12C renal
UACC-62 melanoma = tested on: UACC-62 melanoma
OVCAR-5 ovarian = tested on: OVCAR-5 ovarian
SF-268 CNS = tested on: SF-268 CNS
HCT-116 colon = tested on: HCT-116 colon
NCI-H522 lung = tested on: NCI-H522 lung
SNB-75 CNS = tested on: SNB-75 CNS
SF-539 CNS = tested on: SF-539 CNS

## O=C(NCC1Nc2ccncc2S(=O)(=O)N1)c1ccc(Br)cc1 (stereo not given)
BT-549 breast
  TGI: > 100 µM
MCF7 breast
  TGI: > 100 µM
KM12 colon
  TGI: > 100 µM
MALME-3M melanoma
  TGI: 97.5 µM
RPMI-8226 leukemia
  TGI: > 100 µM
OVCAR-4 ovarian
  TGI: > 100 µM
A498 renal
  TGI: > 100 µM
CAKI-1 renal
  TGI: > 100 µM
MOLT-4 leukemia
  TGI: > 100 µM
HOP-62 NSCLC
  TGI: > 100 µM
HL-60(TB) leukemia
  TGI: > 100 µM
NCI-H23 lung
  TGI: > 100 µM
SK-OV-3 ovarian
  TGI: > 100 µM
SK-MEL-2 melanoma
  TGI: 57.4 µM
NCI-H460 lung
  TGI: > 100 µM
UACC-257 melanoma
  TGI: > 100 µM
MDA-MB-231 breast
  TGI: > 100 µM
HCC-2998 colon
  TGI: > 100 µM
IGROV1 ovarian
  TGI: > 100 µM
NCI/ADR-RES ovarian
  TGI: > 100 µM
OVCAR-8 ovarian
  TGI: > 100 µM
NCI-H226 lung
  TGI: > 100 µM
SK-MEL-5 melanoma
  TGI: > 100 µM
PC-3 prostate
  TGI: 51.4 µM
MDA-MB-435
  TGI: 37.2 µM
HCT-15 colon
  TGI: > 100 µM
LOX IMVI melanoma
  TGI: > 100 µM
SNB-19 CNS
  TGI: > 100 µM
COLO 205 colon
  TGI: > 100 µM
DU-145 prostate
  TGI: > 100 µM
TK-10 renal
  TGI: > 100 µM
ACHN renal
  TGI: > 100 µM
U251 CNS
  TGI: > 100 µM
A549 NSCLC
  TGI: > 100 µM
MDA-N
  TGI: 58.6 µM
HT29 colon
  TGI: > 100 µM
HOP-92 NSCLC
  TGI: > 100 µM
SW-620 colon
  TGI: > 100 µM
UO-31 renal
  TGI: > 100 µM
EKVX NSCLC
  TGI: > 100 µM
M14 melanoma
  TGI: 90.8 µM
T-47D breast
  TGI: > 100 µM
SF-295 CNS
  TGI: > 100 µM
K-562 leukemia
  TGI: > 100 µM
OVCAR-3 ovarian
  TGI: > 100 µM
RXF 393 renal
  TGI: > 100 µM
HS 578T breast
  TGI: 83.1 µM
SK-MEL-28 melanoma
  TGI: > 100 µM
786-0 renal
  TGI: > 100 µM
SN12C renal
  TGI: > 100 µM
UACC-62 melanoma
  TGI: > 100 µM
OVCAR-5 ovarian
  TGI: > 100 µM
SF-268 CNS
  TGI: 81.2 µM
HCT-116 colon
  TGI: > 100 µM
NCI-H522 lung
  TGI: > 100 µM
SNB-75 CNS
  TGI: > 100 µM

## CC(=O)Nc1ccc2c(C(=O)O)c(C)c(=O)[nH]c2n1
BT-549 breast
  TGI: > 100 µM
MCF7 breast
  TGI: > 100 µM
KM12 colon
  TGI: > 100 µM
MALME-3M melanoma
  TGI: > 100 µM
RPMI-8226 leukemia
  TGI: > 100 µM
CAKI-1 renal
  TGI: > 100 µM
MOLT-4 leukemia
  TGI: > 100 µM
HL-60(TB) leukemia
  TGI: > 100 µM
NCI-H23 lung
  TGI: > 100 µM
SK-OV-3 ovarian
  TGI: > 100 µM
SK-MEL-2 melanoma
  TGI: > 100 µM
NCI-H460 lung
  TGI: > 100 µM
UACC-257 melanoma
  TGI: > 100 µM
MDA-MB-231 breast
  TGI: > 100 µM
IGROV1 ovarian
  TGI: > 100 µM
NCI/ADR-RES ovarian
  TGI: > 100 µM
OVCAR-8 ovarian
  TGI: > 100 µM
NCI-H226 lung
  TGI: > 100 µM
SK-MEL-5 melanoma
  TGI: > 100 µM
PC-3 prostate
  TGI: > 100 µM
MDA-MB-435
  TGI: > 100 µM
HCT-15 colon
  TGI: > 100 µM
SNB-19 CNS
  TGI: > 100 µM
COLO 205 colon
  TGI: > 100 µM
DU-145 prostate
  TGI: > 100 µM
TK-10 renal
  TGI: > 100 µM
ACHN renal
  TGI: > 100 µM
U251 CNS
  TGI: > 100 µM
A549 NSCLC
  TGI: > 100 µM
MDA-N
  TGI: > 100 µM
HT29 colon
  TGI: > 100 µM
HOP-92 NSCLC
  TGI: 56 µM
SW-620 colon
  TGI: > 100 µM
UO-31 renal
  TGI: > 100 µM
EKVX NSCLC
  TGI: > 100 µM
M14 melanoma
  TGI: > 100 µM
T-47D breast
  TGI: > 100 µM
SF-295 CNS
  TGI: > 100 µM
K-562 leukemia
  TGI: > 100 µM
RXF 393 renal
  TGI: > 100 µM
HS 578T breast
  TGI: > 100 µM
786-0 renal
  TGI: > 100 µM
SN12C renal
  TGI: > 100 µM
UACC-62 melanoma
  TGI: > 100 µM
OVCAR-5 ovarian
  TGI: > 100 µM
SF-268 CNS
  TGI: > 100 µM
HCT-116 colon
  TGI: > 100 µM
NCI-H522 lung
  TGI: > 100 µM
SF-539 CNS
  TGI: > 100 µM
